# Results as given in patent US7999107B2, “Substituted pyrano[2,3-B]pyridine derivatives as cannabinoid-1 receptor modulators” (Merck Sharp & Dohme Corp., priority 2007, dated 2011).
# Read-outs that look alike come from different tables or passages of the source.
# Experiments:
# [1] = biological target: T1, recombinant human CB1 receptor (Homo sapiens, UniProt P21554); assay: Cannabinoid Receptor-1 (CB1) Binding Assay
# T1 construct: expressed in transfected cells; host or cells: CHO cells (membranes)
# T1 sequence (P21554 whole entry): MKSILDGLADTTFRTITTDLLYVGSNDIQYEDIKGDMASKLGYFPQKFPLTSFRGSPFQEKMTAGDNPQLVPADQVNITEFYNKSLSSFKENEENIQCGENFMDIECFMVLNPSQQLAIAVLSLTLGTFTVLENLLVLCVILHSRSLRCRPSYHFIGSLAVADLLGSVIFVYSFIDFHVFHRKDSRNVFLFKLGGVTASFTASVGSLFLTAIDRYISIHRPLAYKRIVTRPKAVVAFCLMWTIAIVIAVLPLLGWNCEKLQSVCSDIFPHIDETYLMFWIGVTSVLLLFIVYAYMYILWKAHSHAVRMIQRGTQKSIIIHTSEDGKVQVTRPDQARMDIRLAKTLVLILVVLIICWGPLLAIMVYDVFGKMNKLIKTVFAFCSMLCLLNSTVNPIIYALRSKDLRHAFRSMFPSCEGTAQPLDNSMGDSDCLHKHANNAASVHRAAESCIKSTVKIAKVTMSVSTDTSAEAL
# Description: Binding affinity determination is based on recombinant human CB1 receptor expressed in Chinese Hamster Ovary (CHO) cells (Felder et al, Mol. Pharmacol. 48: 443-450, 1995). Total assay volume is 250 μl (240 μl CB1 receptor membrane solution plus 5 μl test compound solution plus 5 μl [3H]CP-55940 solution). Final concentration of [3H]CP-55940 is 0.6 nM. Binding buffer contains 50 mM Tris-HCl, pH7.4, 2.5 mM EDTA, 5 mM MgCl2, 0.5 mg/mL fatty acid free bovine serum albumin and protease inhibitors (Cat#P8340, from Sigma). To initiate the binding reaction, 5 μl of radioligand solution is added, the mixture is incubated with gentle shaking on a shaker for 1.5 h at 30° C. The binding is terminated by using 96-well harvester and filtering through GF/C filter presoaked in 0.05% polyethylenimine. The bound radiolabel is quantitated using scintillation counter. Apparent binding affinities for various compounds are calculated from IC50 values (DeBlasi et al., Trends Pharmacol Sci 10: 227-229, 1989).
# [2] = biological target: T2, recombinant human CB1 receptor expressed in CHO cells (Homo sapiens, UniProt P21554); assay: Cannabinoid Receptor-1 (CB1) Functional Antagonist Assay; format: cell-based; details: cAMP
# T2 sequence (P21554 whole entry): as above
# Description: To determine the antagonist activity of test compound, the reaction mixture also contains 0.5 nM of the agonist CP55940 (or 50 nM of methanandamide), and the reversal of the CP55940 (or methanandamide) effect is quantitated with increasing concentration of the test compound. Intracellular cAMP is determined as described above. An IC50 value for the test compound is calculated from the titration curve.
# Alternatively, a series of dose response curves for the agonist CP55940 (or methanandamide) is performed with increasing concentration of the test compound in each of the dose response curves, and a Schild analysis is carried to calculate the Kb value which is an estimation of test compound binding affinity.
# [3] = biological target: T2, recombinant human CB1 receptor expressed in CHO cells; assay: Cannabinoid Receptor-1 (CB1) Functional Activity Assay (cAMP); format: cell-based; details: forskolin-stimulated cAMP
# Description: The functional activation of CB1 receptor is based on recombinant human CB1 receptor expressed in CHO cells (Felder et al, Mol. Pharmacol. 48: 443-450, 1995). To determine the agonist activity or inverse agonist activity of any test compound, 50 ul of CB1-CHO cell suspension are mixed with test compound and 70 ul assay buffer containing 0.34 mM 3-isobutyl-1-methylxanthine and 5.1 uM of forskolin in 96-well plates. The assay buffer is comprised of Earle's Balanced Salt Solution supplemented with 5 mM MgCl2, 1 mM glutamine, 10 mM HEPES, and 1 mg/mL bovine serum albumin. The mixture is incubated at room temperature for 30 minutes, and terminated by adding 30 ul/well of 0.5M HCl. The total intracellular cAMP level is quantitated using the New England Nuclear Flashplate and cAMP radioimmunoassay kit.
# [4] = [3H]CP-55940 0.6 nM, CHO cell membranes, read-out: CB1 binding IC50
"IC50 [1, 4]",functional character at CB1 [2],EC50 [3],SMILES,IC50 [1]
10 nM,functional inverse agonists,< 20 nM,"Cc1cc(NC2CC(C)(C)Oc3nc(-c4ccc(Cl)cc4Cl)c(-c4ccc(Cl)cc4)cc32)n[nH]1 (centres unmarked) [Example 246, 6-(4-Chlorophenyl)-7-(2,4-dichlorophenyl)-2,2-dimethyl-N-(5-methyl-1H-pyrazol-3-yl)-3,4-dihydro-2H-pyrano[2,3-b]pyridin-4-amine]",–
2 nM,functional inverse agonists,< 20 nM,"CN(C)C(=O)NC1CC(C)(C)Oc2nc(-c3ccc(Cl)cc3Cl)c(-c3ccc(Cl)cc3)cc21 (centres unmarked) [Example 111, N′-[6-(4-chlorophenyl)-7-(2,4-dichlorophenyl)-2,2-dimethyl-3,4-dihydro-2H-pyrano[2,3-b]pyridin-4-yl]-N,N-dimethylurea]",–
2 nM,functional inverse agonists,< 20 nM,"CC1(C)CC(Nc2ccccn2)c2cc(-c3ccc(Cl)cc3)c(-c3ccc(Cl)cc3Cl)nc2O1 (centres unmarked) [Example 245, 6-(4-Chlorophenyl)-7-(2,4-dichlorophenyl)-2,2-dimethyl-N-(pyridine-2-yl)-3,4-dihydro-2H-pyrano[2,3-b]pyridin-4-amine]",–
2 nM,functional inverse agonists,< 20 nM,"CNC(=O)C(=O)NC1CC(C)(C)Oc2nc(-c3ccc(Cl)cc3Cl)c(-c3ccc(Cl)cc3)cc21 (centres unmarked) [Example 66, N-[6-(4-Chlorophenyl)-7-(2,4-dichlorophenyl)-2,2-dimethyl-3,4-dihydro-2H-pyrano[2,3-b]pyridin-4-yl]-N′-methylethanediamide]",–

# Continued, molecule first:
SMILES,"IC50 [1, 4]",functional character at CB1 [2],EC50 [3],IC50 [1]
"CC(C)(C)C1CC(=O)c2cc(-c3ccc(Cl)cc3)c(-c3ccccc3Cl)nc2O1 (centres unmarked) [Example 12, 2-tert-Butyl-7-(2-chlorophenyl)-6-(4-chlorophenyl)-2,3-dihydro-4H-pyrano[2,3-b]pyridin-4-one]",2 nM,functional inverse agonists,< 20 nM,–
"C[C@@H](O)C(=O)NC1CC(C)(C)Oc2nc(-c3ccc(Cl)cc3Cl)c(-c3ccc(Cl)cc3)cc21 (stereo partly drawn) [Example 96, (2R)-N-[6-(4-chlorophenyl)-7-(2,4-dichlorophenyl)-2,2-dimethyl-3,4-dihydro-2H-pyrano[2,3-b]pyridin-4-yl]-2-hydroxypropanamide]",–,functional inverse agonists,–,–
"O=C1CC2(CCCCC2)Oc2nc(-c3ccccc3Cl)c(-c3ccc(Cl)cc3)cc21 [Example 4, 7′-(2-Chlorophenyl)-6′-(4-chlorophenyl)spiro[cyclohexane-1,2′-pyrano[2,3-b]pyridin]-4′(3′H)-one]",–,functional inverse agonists,< 20 nM,8 nM
"Cc1cc(C(=O)N[C@@H]2CC(C)(C)Oc3nc(-c4ccc(Cl)cc4Cl)c(-c4ccc(Cl)cc4)cc32)n[nH]1 [Example 327, N-[(4R)-6-(4-Chlorophenyl)-7-(2,4-dichlorophenyl)-2,2-dimethyl-3,4-dihydro-2H-pyrano[2,3-b]pyridin-4-yl]-5-methyl-1H-pyrazole-3-carboxamide]",–,functional inverse agonists,–,–
